# Source: PubChem BioAssay (NCI)
# Values joined by “and” are separate entries in the source; they are usually repeats but may differ in a detail not shown here. Identical values can stand only once.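 96-well plates; 48 h exposure; 5 concentrations. Endpoints by linear interpolation between flanking doses. Not reached: highest tested concentration assigned. Abbreviation: GI50, concentration required for 50% inhibition of growth. At the TGI there is no net growth.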
# Legend:
# Test in all cases: growth of human tumour cells (NCI), 48 h
# [1] = system: CCRF-CEM leukemia
# [2] = system: EKVX NSCLC
# [3] = system: HCT-116 colon
# [4] = system: HOP-62 NSCLC
# [5] = system: HT29 colon
# [6] = system: KM20L2 colon
# [7] = system: M19-MEL melanoma
# [8] = system: SNB-75 CNS
# [9] = system: TK-10 renal
# [10] = system: T-47D breast
SMILES,GI50 [1],TGI [1],GI50 [2],TGI [2],GI50 [3],TGI [3],GI50 [4],TGI [4],GI50 [5],TGI [5],GI50 [6],TGI [6],GI50 [7],TGI [7],GI50 [8],TGI [8],GI50 [9],TGI [9],TGI [10]
CCC[CH2][Sn]([CH2]CCC)([O]C(=O)c1cc(OC)c(OC)c(OC)c1)[O]C(=O)c1cc(OC)c(OC)c(OC)c1,0.25 µM,0.862 µM,1.95 µM,4.69 µM,1.37 µM,2.66 µM,2.01 µM,3.45 µM,1.69 µM,3.33 µM,1.8 µM,3.3 µM,0.749 µM,2.02 µM,0.169 µM,1.29 µM,1.58 µM,3.02 µM,
CCCCCCCCC(=O)CCCCCCCCC(=O)O,,> 100 µM,,93.3 µM,,51 µM,,66.6 µM,,49.7 µM,,67.8 µM,,> 100 µM,,> 100 µM,,> 100 µM,
CC(=O)c1cc2c3c(c1)c1cc4c(cc1c(=O)n3CC2)OCO4,,> 100 µM,,> 100 µM,,26.6 µM,,> 100 µM,,> 100 µM,,> 100 µM,,> 100 µM,,> 100 µM,,> 100 µM,
COC(=O)C(=C\Sc1ccccc1)/C=C/C(=O)OC(C)(C)C,,5.35 µM,,24.9 µM,,21.9 µM,,34.8 µM,,36.1 µM,,31.1 µM,,23.9 µM,,28.5 µM,,30.8 µM,
Cc1cc(NC(=O)NC(=O)c2ccccc2[N+](=O)[O-])ccc1Oc1ncc(Cl)cn1,,> 100 µM,,> 100 µM,,18 µM,,19.4 µM,,3.38 µM,,0.44 µM,,> 100 µM,,1.59 µM,,> 65.2 µM,> 100 µM
c1ccc2c(c1)nnn1c3cnccc3nc21,,44.3 µM,,> 100 µM,,> 100 µM,,> 100 µM,,80.3 µM,,> 100 µM,,> 100 µM,,> 100 µM,,94.7 µM,
COc1ccccc1/C=C1\CCC(CN(C)C)C1=O (centres undefined),,8.47 µM,,38.9 µM,,18.1 µM,,36.4 µM,,16.1 µM,,16.4 µM,,7.46 µM,,17.8 µM,,15.7 µM,28.8 µM
O=C1C(CN(Cc2ccccc2)Cc2ccccc2)CCCC1CN(Cc1ccccc1)Cc1ccccc1 (centres undefined),,14.2 µM and > 100 µM,36.8 µM and > 100 µM,59.9 µM and > 100 µM,14.6 µM and 70.3 µM,21.5 µM and > 100 µM,,> 100 µM,25.7 µM and 59.3 µM,47.1 µM and > 100 µM,17.6 µM and > 100 µM,35.6 µM and > 100 µM,,18.7 µM and > 100 µM,31.1 µM and 76.2 µM,49.1 µM and > 100 µM,14.7 µM and > 100 µM,28.3 µM and > 100 µM,> 100 µM
CCOC(=O)NC(=O)c1cn(CCCCCCCCCCC(=O)N2CCN(CCn3cc(C(=O)NC(=O)OCC)c(=O)[nH]c3=O)CC2)c(=O)[nH]c1=O,,> 100 µM,,> 100 µM,,> 100 µM,,> 100 µM,,> 100 µM,,> 100 µM,,> 100 µM,,> 100 µM,,> 100 µM,
